Measurements as given in patent US20230011269A1, “PHARMACEUTICAL COMPOSITION COMPRISING A POTENT INHIBITOR OF URAT1” (Ardea Biosciences, Inc., priority 2015, published 2023).
≈ marks a conversion by molar mass, not a printed value. Read-outs that look alike come from different tables or passages of the source.

How the values were obtained:
[1] = Phase 1 single dose study, immediate release formulations: plasma pharmacokinetics; format: in vivo, human; settings: for AUC(0-t): read-out: AUC0-24
Excerpt: (§1) A phase 1, randomized, double-blind, placebo-controlled study in healthy adult male volunteers evaluated single rising doses and the preliminary food effect for 2-((3-(4-cyanonaphthalen-1-yl)pyridine-4-yl)thio)-2-methylpropanoic acid at 6 dose groups with 8 subjects per group. […] Subjects in each dose group were randomized to receive a single dose of either 2-((3-(4-cyanonaphthalen-1-yl)pyridine-4-yl)thio)-2-methylpropanoic acid (6 subjects) or placebo (2 subjects). 2-((3-(4-cyanonaphthalen-1-yl)pyridine-4-yl)thio)-2-methylpropanoic acid was supplied as 1 mg oral solution, 2 mg oral solution, 5 mg tablets, or 20 mg tablets (depending on dose level).
Segment A evaluated single rising doses of 2 mg, 5 mg, 20 mg and 40 mg and the preliminary food effect of 2-((3-(4-cyanonaphthalen-1-yl)pyridine-4-yl)thio)-2-methylpropanoic acid at the 5 mg and 20 mg doses followed by multiple ascending doses of 1 mg, 5 mg and 10 mg qd in Segment B.
The oral solution was prepared by the clinical pharmacist in bulk within 24 hours of administration. The oral solution of 2-((3-(4-cyanonaphthalen-1-yl)pyridine-4-yl)thio)-2-methylpropanoic acid (0.033 mg/mL concentration) was prepared as a mixture of the appropriate amount of 2-((3-(4-cyanonaphthalen-1-yl)pyridine-4-yl)thio)-2-methylpropanoic acid powder, anhydrous dibasic sodium phosphate, and sterile water for irrigation; placebo oral solution was prepared as a vehicle using anhydrous dibasic sodium phosphate and sterile water for irrigation. […] Plasma samples were collected at the following time-points in relation to dosing on Day 1: pre-dose (within 30 minutes before dosing) and at 0.25, 0.5, 0.75, 1, 1.5, 2, 2.5, 3, 4, 5, 6, 8, 10, 12, 24, 30, 36, 48, 54, 60, and 72 hours post-dose, and were analysed for 2-((3-(4-cyanonaphthalen-1-yl)pyridine-4-yl)thio)-2-methylpropanoic acid content.

[2] = aqueous equilibrium solubility at 37° C.; format: physicochemical; settings: aqueous media, thermodynamic from solid
Excerpt: The solubility of 2-((3-(4-cyanonaphthalen-1-yl)pyridine-4-yl)thio)-2-methylpropanoic acid in aqueous media is highly dependent upon pH.

urine urate excretion = assay: Phase 1 single dose study, immediate release formulations: urine urate excretion; format: in vivo, human; settings: 5 mg/Fasted
Excerpt: as §1
The mean plasma concentration-time profiles for the IR formulations under fed and fasted conditions are depicted in FIGS. 3a and 3b. Absorption of 2-((3-(4-cyanonaphthalen-1-yl)pyridine-4-yl)thio)-2-methylpropanoic acid following a single oral dose under fasted conditions was rapid. […] When 2-((3-(4-cyanonaphthalen-1-yl)pyridine-4-yl)thio)-2-methylpropanoic acid was administered with food, slightly slower absorption and lower exposure were observed. […] Important pharmacodynamic parameters related to the serum Uric Acid lowering effects are shown in the following two tables: […]

[3] = 2 mg single dose, Fasted, oral solution, Group 5, N = 6, Geomean
[4] = 5 mg single dose, Fasted, 1 × 5 mg tablet, Group 4, N = 6, Geomean
[5] = 5 mg single dose, Fed, 1 × 5 mg tablet, Group 6, N = 6, Geomean
[6] = 20 mg single dose, Fasted, 1 × 20 mg tablet, Group 1, N = 6, Geomean
[7] = 20 mg single dose, Fed, 1 × 20 mg tablet, Group 3, N = 6, Geomean
[8] = 40 mg single dose, Fasted, 2 × 20 mg tablet, Group 2, N = 6, Geomean
[9] = mg of urate per urine collection period

- AUC∞ [1, 3]: 0.0450 µg·h/mL
- Cmax [1, 3]: 0.0364 µg/mL
- t1/2 [1, 3]: 12.1 h
- Tmax ([1]; 2 mg single dose, Fasted, oral solution, Group 5, N = 6, median): 30 min
- AUC∞ [1, 4]: 0.121 µg·h/mL
- Cmax [1, 4]: 0.0729 µg/mL
- t1/2 [1, 4]: 14.2 h
- AUC∞ [1, 5]: 0.0928 µg·h/mL
- Cmax [1, 5]: 0.0457 µg/mL
- t1/2 [1, 5]: 12.7 h
- Tmax ([1]; 5 mg single dose, Fed, 1 × 5 mg tablet, Group 6, N = 6, median): 75 min
- Cmax ([1]; 5 mg/Fasted, immediate release, read-out: Cmax): 0.0729 µg/mL
- Cmax [1, 6]: 0.384 µg/mL
- t1/2 [1, 6]: 10.9 h
- Tmax ([1]; 20 mg single dose, Fasted, 1 × 20 mg tablet, Group 1, N = 6, median): 30 min
- AUC∞ [1, 7]: 0.415 µg·h/mL
- Cmax [1, 7]: 0.181 µg/mL
- t1/2 [1, 7]: 13.8 h
- Tmax ([1]; 20 mg single dose, Fed, 1 × 20 mg tablet, Group 3, N = 6, median): 75 min
- AUC∞ [1, 8]: 1.27 µg·h/mL
- t1/2 [1, 8]: 9.51 h
- Tmax ([1]; 40 mg single dose, Fasted, 2 × 20 mg tablet, Group 2, N = 6, median): 45 min
- AUC(0-t) ([1]; male, human, plasma, oral, 2 mg, 2 mg/Fasted, immediate release): 38.8 ng·h/mL
- AUC(0-t) ([1]; male, human, plasma, oral, 5 mg, 5 mg single dose, Fasted, 1 × 5 mg tablet, Group 4, N = 6, Geomean): 102 ng·h/mL
- Tmax ([1]; male, human, plasma, oral, 5 mg, 5 mg single dose, Fasted, 1 × 5 mg tablet, Group 4, N = 6, median, read-out: Tmax): 37.5 min
- AUC(0-t) ([1]; male, human, plasma, oral, 5 mg, 5 mg single dose, Fed, 1 × 5 mg tablet, Group 6, N = 6, Geomean): 75.2 ng·h/mL
- AUC(0-t) ([1]; male, human, plasma, oral, 5 mg, 5 mg/Fasted, immediate release): 102 ng·h/mL
- AUC(0-t) ([1]; male, human, plasma, oral, 20 mg, 20 mg single dose, Fasted, 1 × 20 mg tablet, Group 1, N = 6, Geomean): 463 ng·h/mL
- AUC(0-t) ([1]; male, human, plasma, oral, 20 mg, 20 mg single dose, Fed, 1 × 20 mg tablet, Group 3, N = 6, Geomean): 350 ng·h/mL
- AUC(0-t) ([1]; male, human, plasma, oral, 20 mg, 20 mg/Fasted, immediate release): 463 ng·h/mL
- AUC(0-t) ([1]; male, human, plasma, oral, 40 mg, 40 mg single dose, Fasted, 2 × 20 mg tablet, Group 2, N = 6, Geomean): 1070 ng·h/mL
- AUC(0-t) ([1]; male, human, plasma, oral, 40 mg, 40 mg/Fasted, immediate release): 1070 ng·h/mL
- AUC(0-inf) ([1]; male, human, plasma, oral, 20 mg single dose, Fasted, 1 × 20 mg tablet, Group 1, N = 6, Geomean): 540 ng·h/mL
- Cmax ([1]; male, human, plasma, oral, 40 mg single dose, Fasted, 2 × 20 mg tablet, Group 2, N = 6, Geomean, read-out: Cmax): 0.76 µg/mL
- AUC(0-t) ([1]; male, human, plasma, po, 2 mg, 2 mg single dose, Fasted, oral solution, Group 5, N = 6, Geomean): 38.8 ng·h/mL
- Tmax ([1]; male, human, plasma, po, 5 mg, immediate release tablet, oral, fasted, human, read-out: Tmax (called mean in b5, median)): 36 min
- Tmax ([1]; male, human, plasma, po, 5 mg, immediate release tablet, oral, fasted, human, read-out: time at which the peak plasma concentration is observed (Tmax), range): 15 to 90 min
- Cmax ([1]; male, human, plasma, po, 5 mg, read-out: geometric mean maximum plasma concentration (Cmax)): ~0.073 µg/mL
- solubility at 24 h ([2]; pH 1, simulated gastric fluid, 0.1N HCl, pH initial 1.1, pH (24 h) 1.0, read-out: Solubility after 24 hours): 1480 µg/mL (≈ 4250 µM)
- solubility at 48 h ([2]; pH 1.1, simulated gastric fluid, 0.1N HCl, pH initial 1.1, pH (48 h) 1.1, read-out: Solubility after 48 hours): 1240 µg/mL (≈ 3550 µM)
- solubility at 24 h ([2]; pH 1.6, simulated gastric fluid, SGF pH 1.6, pH initial 1.6, pH (24 h) 1.4, read-out: Solubility after 24 hours): 415 µg/mL (≈ 1190 µM)
- solubility at 48 h ([2]; pH 1.6, simulated gastric fluid, SGF pH 1.6, pH initial 1.6, pH (48 h) 1.4, read-out: Solubility after 48 hours): 398 µg/mL (≈ 1140 µM)
- solubility at 24 h ([2]; pH 3, aqueous buffer, Citrate pH 3.0, pH initial 3.0, pH (24 h) 2.8, read-out: Solubility after 24 hours): 66 µg/mL (≈ 189 µM)
- solubility at 48 h ([2]; pH 3, aqueous buffer, Citrate pH 3.0, pH initial 3.0, pH (48 h) 2.8, read-out: Solubility after 48 hours): 65 µg/mL (≈ 187 µM)
- solubility at 24 h ([2]; pH 4, aqueous buffer, Succinate pH 4.0, pH initial 4.0, pH (24 h) 3.9, read-out: Solubility after 24 hours): 56 µg/mL (≈ 161 µM)
- solubility at 48 h ([2]; pH 4, aqueous buffer, Succinate pH 4.0, pH initial 4.0, pH (48 h) 3.9, read-out: Solubility after 48 hours): 55 µg/mL (≈ 158 µM)
- solubility at 24 h ([2]; pH 4.5, aqueous buffer, Acetate pH 4.5, pH initial 4.6, pH (24 h) 4.5, read-out: Solubility after 24 hours): 70 µg/mL (≈ 201 µM)
- solubility at 48 h ([2]; pH 4.5, aqueous buffer, Acetate pH 4.5, pH initial 4.6, pH (48 h) 4.5, read-out: Solubility after 48 hours): 65 µg/mL (≈ 187 µM)
- solubility at 24 h ([2]; pH 5, aqueous buffer, Citrate pH 5.0, pH initial 5.0, pH (24 h) 5.0, read-out: Solubility after 24 hours): 97 µg/mL (≈ 278 µM)
- solubility at 48 h ([2]; pH 5, aqueous buffer, Citrate pH 5.0, pH initial 5.0, pH (48 h) 4.9, read-out: Solubility after 48 hours): 95 µg/mL (≈ 273 µM)
- solubility at 48 h ([2]; pH 5.3, water, Water, pH initial 6.3, pH (48 h) 5.3, read-out: Solubility after 48 hours): 132 µg/mL (≈ 379 µM)
- solubility at 24 h ([2]; pH 5.4, water, Water, pH initial 6.3, pH (24 h) 5.4, read-out: Solubility after 24 hours): 148 µg/mL (≈ 425 µM)
- solubility at 24 h ([2]; pH 6, aqueous buffer, Histidine pH 6.0, pH initial 6.1, pH (24 h) 5.8, read-out: Solubility after 24 hours): 532 µg/mL (≈ 1530 µM)
- solubility at 48 h ([2]; pH 6, aqueous buffer, Histidine pH 6.0, pH initial 6.1, pH (48 h) 5.8, read-out: Solubility after 48 hours): 485 µg/mL (≈ 1390 µM)
- solubility at 24 h ([2]; pH 6.8, aqueous buffer, Potassium phosphate pH 6.8, pH initial 6.9, pH (24 h) 6.6, read-out: Solubility after 24 hours): 2370 µg/mL (≈ 6800 µM)
- solubility at 48 h ([2]; pH 6.8, aqueous buffer, Potassium phosphate pH 6.8, pH initial 6.9, pH (48 h) 6.5, read-out: Solubility after 48 hours): 2710 µg/mL (≈ 7770 µM)
- solubility at 24 h ([2]; pH 6.9, aqueous buffer, 0.03N NaOH, pH initial 12.3, pH (24 h) 6.9, read-out: Solubility after 24 hours): 10600 µg/mL (≈ 30300 µM)
- solubility at 48 h ([2]; pH 6.9, aqueous buffer, 0.03N NaOH, pH initial 12.3, pH (48 h) 6.9, read-out: Solubility after 48 hours): 10300 µg/mL (≈ 29400 µM)
- solubility at 48 h ([2]; pH 7, aqueous buffer, 0.1N NaOH, pH initial 12.8, pH (48 h) 7.0, read-out: Solubility after 48 hours): 33500 µg/mL (≈ 96100 µM)
- solubility at 24 h ([2]; pH 7, aqueous buffer, Sodium phosphate pH 7.0, pH initial 7.0, pH (24 h) 6.7, read-out: Solubility after 24 hours): 3520 µg/mL (≈ 10100 µM)
- solubility at 48 h ([2]; pH 7, aqueous buffer, Sodium phosphate pH 7.0, pH initial 7.0, pH (48 h) 6.6, read-out: Solubility after 48 hours): 3620 µg/mL (≈ 10400 µM)
- solubility at 24 h ([2]; pH 7.1, aqueous buffer, 0.1N NaOH, pH initial 12.8, pH (24 h) 7.1, read-out: Solubility after 24 hours): 31900 µg/mL (≈ 91500 µM)
- solubility at 48 h ([2]; pH 7.4, aqueous buffer, 0.3N NaOH, pH initial 13.2, pH (48 h) 7.4, read-out: Solubility after 48 hours): 93600 µg/mL (≈ 269000 µM)
- solubility at 24 h ([2]; pH 11.7, aqueous buffer, 0.3N NaOH, pH initial 13.2, pH (24 h) 11.7, read-out: Solubility after 24 hours): 87800 µg/mL (≈ 252000 µM)
Structure (SMILES): CC(C)(Sc1ccncc1-c1ccc(C#N)c2ccccc12)C(=O)O [2-((3-(4-cyanonaphthalen-1-yl)pyridine-4-yl)thio)-2-methylpropanoic acid]
- Urine Urate Excretion 0-6 hrs/0-24 hrs (urine urate excretion): 0.468
- Urine Urate Excretion UUE 0-6 hrs (urine urate excretion; [9]): 509 mg
- Urine Urate Excretion UUE 6-12 hrs (urine urate excretion; [9]): 231 mg
- Urine Urate Excretion UUE 12-24 hrs (urine urate excretion; [9]): 347 mg
